Assay results: US20100113613A1, “CYCLOHEXANE POLYALCOHOL FORMULATION FOR TREATMENT OF DISORDERS OF PROTEIN AGGREGATION” (WARATAH PHARMACEUTICALS, priority 2006, published 2010)

Columns and labels:
TgCRND8 mice [1] = assay: TgCRND8 mice therapeutic dosing (5-6 months): Morris Water Maze; type: in vivo
Aβ plaque burden = assay: TgCRND8 mice 2 month ad libitum treatment from 5 months: Aβ plaque burden; type: in vivo; details: 2 months ad libitum from 5 months
clinical = details: human, in vivo
Text: Dose levels were escalated between cohorts, such that the first cohort received the lowest dose level, the middle cohorts received intermediate dose levels, and the final cohort received the highest proposed dose level. Dose escalation was dependent on a review of safety data from the previously dosed cohort. […] Dosing started with the lowest dose and escalated to the highest dose. […] Subjects received their single dose of study drug on the study day 1 (Day 1). Throughout the day on Day 1, subjects were monitored for safety and PK samples were drawn. On Day 2, subjects were monitored for safety and PK samples were drawn.

TgCRND8 mice [2] = assay: Morris Water Maze, TgCRND8 mice dosed 3 to 4 months, 3.3-30 mg/kg/day (Example 3); type: in vivo
Description: 8 mice were treated with scyllo-cyclohexanehexyl by oral gavage from 3 to 4 months. […] Animals were assessed at 4 months of age. Behavioural tests: Morris Water Maze testing was performed as previously described (Janus C, et al., 2000, Nature 408:979-982). After non-spatial pre-training, mice underwent place discrimination training for 5 days with 4-trials per day. Data were subjected to a repeated measures analysis of variance (ANOVA) with treatment (untreated, scyllo-cyclohexanehexyl) as the between subject factor. Cerebral plaque burden. Brains were removed and one hemisphere was fixed in 4% paraformaldehyde and embedded in paraffin wax in the mid sagittal plane. To generate sets of systematic uniform random sections, 5 μm serial sections were collected across the entire hemisphere. Sets of sections at 50 μm intervals were used for analyses (10-14 sections/set). Plaques were identified after antigen retrieval with formic acid, and incubation with primary anti-Aβ antibody (Dako M-0872), followed by secondary antibody (Dako StreptABCcomplex/horseradish kit). […] Aβ plaque burden was assessed with Leco IA-3001 image analysis software interfaced with Leica microscope and Hitachi KP-M1U CCD video camera. […] Vascular Aβ burden was defined as Aβ plaques originating from or surrounding blood vessels and was analysed similarly. […] The total swim path length to find the hidden platform is evaluated. […]

Aβ42 = target: T1, Aβ42 (Homo sapiens, UniProt P05067); assay: TgCRND8 dose response, dosed 5-6 months once daily: Aβ42 in brain homogenates by ELISA; type: in vivo; details: CRND8 mice 5-6 months, oral
T1 construct: from tissue; host or cells: brain homogenate (and plasma) of TgCRND8 transgenic mice
Description: Dose response was further examined in animals dosed from 5-6 months of age. Disease is more advanced at this later time point, so there may be greater clinical relevance. The dose levels investigated were 5, 10 and 30 mg/kg or vehicle, once daily. Accumulation of Aβ42 was assessed. • Reduction in amyloid accumulation in the brain: Levels of Aβ42 in brain homogenates were assessed by ELISA.

[3] = system: rats infused intracerebroventricularly; assay: Cognitive dysfunction in rats infused intracerebroventricularly with Aβ oligomers; type: in vivo, rat; details: rats infused icv with oligomers
Description: More complex systems provide support for 5 μM (0.9 μg/mL) as an effective local concentration of the scyllo-cyclohexanehexyl. […] The effectiveness of this concentration was confirmed in acute cognitive dysfunction study in rats. In the clinic, effective local concentrations of a scyllo-cyclohexanehexyl will need to be achieved following oral dosing. Three studies have examined the effective dose range of a scyllo-cyclohexanehexyl following oral dosing. […] In rats infused intracerebroventricularly (icy) with All oligomers, approximately 30 mg/kg/day (the lowest dose administered orally) provided effective alleviation of cognitive dysfunction. Therefore, considering 2 species, different animal ages and different endpoints, a dose level ranging between 3-30 mg/kg/day has consistently shown efficacy.

T1 sequence (P05067 672-713): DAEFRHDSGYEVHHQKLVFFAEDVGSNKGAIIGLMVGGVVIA

Compound: OC1C(O)C(O)C(O)C(O)C1O (stereo not drawn) [AZD-103, scyllo-inositol]
- swim path lengths vs non-transgenic littermates (TgCRND8 mice [1]; TgCRND8 mice treated 28 days from 5 months, p=0.11): indistinguishable from non-transgenic littermates
- behavioural performance (swim path length in the Morris Water Maze) vs untreated controls (TgCRND8 mice [1]; TgCRND8 mice, 28 days from 5 months, drinking water 10 mg/ml (approx. 900 mg/kg over 24 hours), p=0.01): significantly better behavioural performance
- growth of plaques by size distribution (Aβ plaque burden): effective at inhibiting the growth of plaques of all sizes
- percent brain area covered in plaques (Aβ plaque burden; P=0.0001): significantly reduced
- mean elimination half-life (t1/2), range over doses (clinical; po): 13 24
- CL/F (clinical; po, 500 mg): 13.67 ± 5.49 L/h
- CL/F (clinical; po, 1000 mg): 8.51 ± 2.78 L/h
- CL/F (clinical; po, 2000 mg): 9.59 ± 1.80 L/h
- CL/F (clinical; po, 3500 mg): 7.71 ± 1.59 L/h
- CL/F (clinical; po, 5000 mg): 10.04 ± 1.49 L/h
- Vd (clinical; male, 7000 mg): 214 L
- half-life (clinical; male, 7000 mg): 18.4 h
- share of the AUC accounted for in the first 12 hrs (clinical; male, po): 80-85%
- AUC(0-inf) (clinical; male, po, 500 mg): 42.5 ± 22.1 µg·h/mL
- AUC(0-t) (clinical; male, po, 500 mg): 29.9 ± 7.11 µg·h/mL
- Cmax (clinical; male, po, 500 mg): 5.83 ± 1.83 µg/mL
- MRT (clinical; male, po, 500 mg): 19.1 ± 21.8 h
- Tmax (clinical; male, po, 500 mg): 4 ± 1.55 h
- half-life (clinical; male, po, 500 mg): 13.3 ± 16.7 h
- AUC(0-inf) (clinical; male, po, 1000 mg): 130 ± 44.4 µg·h/mL
- Cmax (clinical; male, po, 1000 mg): 17 ± 5.29 µg/mL
- MRT (clinical; male, po, 1000 mg): 19.7 ± 3.17 h
- Tmax (clinical; male, po, 1000 mg): 3.25 ± 1.47 h
- half-life (clinical; male, po, 1000 mg): 22.5 ± 5.75 h
- AUC(0-inf) (clinical; male, po, 2000 mg): 215 ± 41.9 µg·h/mL
- AUC(0-t) (clinical; male, po, 2000 mg): 194 ± 36.1 µg·h/mL
- Cmax (clinical; male, po, 2000 mg): 33.1 ± 7.57 µg/mL
- MRT (clinical; male, po, 2000 mg): 16.3 ± 3.99 h
- Tmax (clinical; male, po, 2000 mg): 2.75 ± 0.61 h
- half-life (clinical; male, po, 2000 mg): 23.9 ± 7.24 h
- AUC(0-inf) (clinical; male, po, 3500 mg): 467 ± 77.7 µg·h/mL
- AUC(0-t) (clinical; male, po, 3500 mg): 441 ± 71.4 µg·h/mL
- Cmax (clinical; male, po, 3500 mg): 74.6 ± 9.24 µg/mL
- MRT (clinical; male, po, 3500 mg): 11 ± 1.43 h
- Tmax (clinical; male, po, 3500 mg): 2.75 ± 0.61 h
- half-life (clinical; male, po, 3500 mg): 20.3 ± 3.09 h
- AUC(0-inf) (clinical; male, po, 5000 mg): 507 ± 72 µg·h/mL
- AUC(0-t) (clinical; male, po, 5000 mg): 491 ± 73.2 µg·h/mL
- Cmax (clinical; male, po, 5000 mg): 110 ± 26.9 µg/mL
- MRT (clinical; male, po, 5000 mg): 8.23 ± 2 h
- Tmax (clinical; male, po, 5000 mg): 2.42 ± 0.66 h
- half-life (clinical; male, po, 5000 mg): 16.9 ± 7.1 h
- AUC(0-inf) (clinical; male, po, 7000 mg): 885 ± 151 µg·h/mL
- AUC(0-t) (clinical; male, po, 7000 mg): 860 ± 148 µg·h/mL
- Cmax (clinical; male, po, 7000 mg): 155 ± 20.4 µg/mL
- Tmax (clinical; male, po, 7000 mg): 2.42 ± 0.67 h
- half-life (clinical; male, po, 7000 mg): 18.4 ± 4.64 h

Compound: scyllo-inositol [AZD-103]
- maximally efficacious dose level (TgCRND8 mice [2]; Morris Water Maze, TgCRND8 mice aged 4 months, oral twice daily): 3.3 mg/kg/day
- swim path length (Morris Water Maze) after 5 days of assessment vs placebo (TgCRND8 mice [2]; TgCRND8 mice treated 3 to 4 months, all dose levels, p=0.003, 0.008, 0.002 for 3.3, 10 and 30 mg/kg/day): significantly shorter
- dose showing maximum effectiveness at reducing plaques (Aβ42): 30 mg/kg/day
- dose providing effective alleviation of cognitive dysfunction (lowest dose administered orally) [3]: approximately 30 mg/kg/day
